Tested on: Individualized ES cells
Experiment: Attachment and survival of individualized ES cells seeded in TeSR medium with or without ROCK inhibitor
Format: cell-based, human
Conditions: H1152 at 1 uM, fibronectin-coated surfaces
Method: Variations in input ES colony size and colony density can lead to substantial variability in performance of any differentiation method. Therefore, the dispersion of ES colonies into individual cells prior to initiating differentiation was investigated. Cultured populations of ES cells were dispersed or individualized with trypsin or TrypLE. Dispersed ES cells were then seeded in TeSR medium, with or without a ROCK inhibitor (H1152, 1 μM). Differentiation procedures described herein were performed with the individualized cultures.
Furthermore, if the seeding density is too low (less than approximately 1×10^4 cells per cm^2), cells detach and lose viability even in the presence of a ROCK inhibitor. If seeded at too high a cell density (greater than 5×10^4 cells per cm^2), cells remain attached, but fail to differentiate into hematoendothelial progenitors. The optimum seeding density between these limits is dependent on the method used for cell expansion, the passage number, and the overall condition of the ES cells.

Cc1cncc2cccc(S(=O)(=O)N3CCCNC[C@@H]3C)c12 [H1152]
attachment and survival of individualized ES cells: do not attach and survive without the addition of a survival factor
